This is an account of results in patent US8450361B2, “Substituted indole and azaindole oxoacetyl piperazinamide derivatives” (priority 2010, dated 2013).

The experiment relates to HIV-1. Kind of experiment: Single-round infectious HIV-1 luciferase reporter virus infection of HeLa CD4 cells. Type of experiment: cell-based. To be noted: Human immunodeficiency virus 1, HeLa, 72 h, read-out: EC50 Group from Table 1. On the procedure: • Virus production—Human embryonic Kidney cell line, 293T, was propagated in Dulbecco's Modified Eagle Medium (Invitrogen, Carlsbad, Calif.) containing 10% fetal Bovine serum (FBS, Sigma, St. Louis, Mo.). • Virus infection—Human epithelial cell line, HeLa, expressing the HIV-1 receptor CD4 was propagated in Dulbecco's Modified Eagle Medium (Invitrogen, Carlsbad, Calif.) containing 10% fetal Bovine serum (FBS, Sigma, St. Louis, Mo.) and supplemented with 0.2 mg/mL Geneticin (Invitrogen, Carlsbad, Calif.). Virus—Single-round infectious reporter virus was produced by co-transfecting human embryonic Kidney 293 cells with an HIV-1 envelope DNA expression vector and a proviral cDNA containing an envelope deletion mutation and the luciferase reporter gene inserted in place of HIV-1 nef sequences (Chen et al, Ref 41). Transfections were performed using lipofectAMINE PLUS reagent as described by the manufacturer (Invitrogen, Carlsbad, Calif.). Experiment • 1. HeLa CD4 cells were plated in 96 well plates at a cell density of 1×10^4 cells per well in 100 μl Dulbecco's Modified Eagle Medium containing 10% fetal Bovine serum and incubated overnight. • 2. Compound was added in a 2 μl dimethylsulfoxide solution, so that the final assay concentration would be ≦10 μM. • 3. 100 μl of single-round infectious reporter virus in Dulbecco's Modified Eagle Medium was then added to the plated cells and compound at an approximate multiplicity of infection (MOI) of 0.01, resulting in a final volume of 200 μl per well. • 4. Virally-infected cells were incubated at 37 degrees Celsius, in a CO2 incubator, and harvested 72 h after infection. • 5. Viral infection was monitored by measuring luciferase expression from viral DNA in the infected cells using a luciferase reporter gene assay kit, as described by the manufacturer (Roche Molecular Biochemicals, Indianapolis, Ind.). Infected cell supernatants were removed and 50 μl of lysis buffer was added per well. After 15 minutes, 50 μl of freshly-reconstituted luciferase assay reagent was added per well. Luciferase activity was then quantified by measuring luminescence using a Wallac microbeta scintillation counter. • 6. The percent inhibition for each compound was calculated by quantifying the level of luciferase expression in cells infected in the presence of each compound as a percentage of that observed for cells infected in the absence of compound and subtracting such a determined value from 100. • 7. An EC50 provides a method for comparing the antiviral potency of the compounds of this invention. The effective concentration for fifty percent inhibition (EC50) was calculated with the Microsoft Excel Xlfit curve fitting software. For each compound, curves were generated from percent inhibition calculated at 10 different concentrations by using a four parameter logistic model (model 205). Table 1 is the key for the data in Table 2. Results

Structures are written as SMILES.

By EC50 is commonly meant the concentration giving half of the maximal effect. `C[C@@H]1CN(C(=O)c2ccccc2)CCN1C(=O)C(=O)c1c[nH]c2c(N3CCN(CCCl)C3=O)cccc12` [P-G-1]: the EC50 was < 1000 nM.
Regarding `COC(=O)c1cc(NC(=O)Nc2cccc3c(C(=O)C(=O)N4CCN(C(=O)c5ccccc5)C[C@H]4C)c[nH]c23)cc(C(=O)OC)c1` [P-C-16], the half-maximal effective concentration (EC50) is < 1000 nM.
As to `C[C@@H]1CN(C(=O)c2ccccc2)CCN1C(=O)C(=O)c1c[nH]c2c(NC(=O)c3ccccn3)cccc12` [P-A-20], the EC50 was < 1000 nM.
Under `CC(=O)Nc1ccc(F)c2c(C(=O)C(=O)N3CCN(C(=O)c4ccccc4)CC3)c[nH]c12` [P-B-2] stands < 1000 nM.
Under `C[C@@H]1CN(C(=O)c2ccccc2)CCN1C(=O)C(=O)c1c[nH]c2c(NC(=O)NCCCCCCNC(=O)Nc3ccc(B(O)O)cc3)cccc12` [P-C-106] stands < 1000 nM; under `Cc1ccc(S(=O)(=O)Nc2cccc3c(C(=O)C(=O)N4CCN(C(=O)c5ccccc5)C[C@H]4C)cn(S(=O)(=O)c4ccc(C)cc4)c23)cc1` [P-E-4], < 1000 nM; under `C[C@@H]1CN(C(=O)c2ccccc2)CCN1C(=O)C(=O)c1c[nH]c2c(NC(=O)NCCOCCOCCNC(=O)c3cccc(B(O)O)c3)cccc12` [P-C-401], < 1000 nM.
Regarding `N#CC(=C1CCN(C(=O)C(=O)c2c[nH]c3c(NC(=O)NCCCC(=O)O)cccc23)CC1)c1ccccc1` [P-I-5], the EC50 was < 1000 nM.
Turning to `COC(=O)CCC(=O)Nc1cccc2c(C(=O)C(=O)N3CCN(C(=O)c4ccccc4)C[C@H]3C)c[nH]c12` [P-A-7], the EC50 was < 1000 nM.
Consider `C[C@@H]1CN(C(=O)c2ccccc2)CCN1C(=O)C(=O)c1c[nH]c2c(NC(=O)c3ccno3)cccc12` [P-A-21], for which the EC50 is < 1000 nM.
For the compound `CCOC(=O)c1ccccc1NC(=O)Nc1cccc2c(C(=O)C(=O)N3CCN(C(=O)c4ccccc4)C[C@H]3C)c[nH]c12` [P-C-10], the concentration giving a half-maximal response (EC50) was < 1000 nM.
Under `C[C@@H]1CN(C(=O)c2ccccc2)CCN1C(=O)C(=O)c1c[nH]c2c(NC(=O)NCCCCNC(=O)Nc3ccc(B(O)O)cc3)cccc12` [P-C-103] stands < 1000 nM.
Under `C[C@@H]1CN(C(=O)c2ccccc2)CCN1C(=O)C(=O)c1c[nH]c2c(NC(=O)NCCCCCCNC(=O)NCCOCCOCCN)cccc12` [P-C-111] stands < 1000 nM.
As for `C[C@@H]1CN(C(=O)c2ccccc2)CCN1C(=O)C(=O)c1c[nH]c2c(NC(=O)Nc3ccc(B(O)O)cc3)cccc12` [P-C-204], the 50% effective concentration (EC50) is < 1000 nM.
Regarding `N#CC(=C1CCN(C(=O)C(=O)c2c[nH]c3c(NC(=O)Nc4ccc(C#N)cc4)cccc23)CC1)c1ccccc1` [P-C-23], the EC50 was < 1000 nM.
`N#CC(=C1CCN(C(=O)C(=O)c2c[nH]c3c(NC(=O)Nc4ccc(S(=O)(=O)O)cc4)cccc23)CC1)c1ccccc1` [P-C-20]: the concentration for a half-maximal effect (EC50) is < 1000 nM.
On to `C[C@@H]1CN(C(=O)c2ccccc2)CCN1C(=O)C(=O)c1c[nH]c2c(NC(=O)c3cccc(B(O)O)c3)cccc12` [P-A-22], for which the concentration for a half-maximal effect (EC50) was < 1000 nM.
Take `CCOC(=O)c1ccc(NC(=O)Nc2cccc3c(C(=O)C(=O)N4CCC(=C(C#N)c5ccccc5)CC4)c[nH]c23)cc1` [P-C-15]: the EC50 was < 1000 nM.
Under `C[C@@H]1CN(C(=O)c2ccccc2)CCN1C(=O)C(=O)c1c[nH]c2c(NC(=O)NCCOCCOCCN)cccc12` [P-C-205] stands < 1000 nM.
Under `CC(=O)OCC(=O)Nc1cccc2c(C(=O)C(=O)N3CCN(C(=O)c4ccccc4)C[C@H]3C)c[nH]c12` [P-A-4] stands < 1000 nM; under `CCOC(=O)c1cccc(NC(=O)Nc2cccc3c(C(=O)C(=O)N4CCC(=C(C#N)c5ccccc5)CC4)c[nH]c23)c1` [P-C-13], < 1000 nM.
`CCOC(=O)c1cccc(NC(=O)Nc2cccc3c(C(=O)C(=O)N4CCN(C(=O)c5ccccc5)C[C@H]4C)c[nH]c23)c1` [P-C-12]: the concentration giving a half-maximal response (EC50) was < 1000 nM.
With `C[C@@H]1CN(C(=O)c2ccccc2)CCN1C(=O)C(=O)c1c[nH]c2c(NC(=O)NCCCC(=O)O)cccc12` [P-I-4], the concentration giving a half-maximal response (EC50) was < 1000 nM.
`CCOC(=O)c1ccc(NC(=O)Nc2cccc3c(C(=O)C(=O)N4CCN(C(=O)c5ccccc5)C[C@H]4C)c[nH]c23)cc1` [P-C-14]: the EC50 was < 1000 nM.
On to `C[C@@H]1CN(C(=O)c2ccccc2)CCN1C(=O)C(=O)c1c[nH]c2c(NC(=O)c3ccc(B(O)O)cc3)cccc12` [P-A-23], for which the EC50 was < 1000 nM.
In the case of `CNCCN1CCN(c2cccc3c(C(=O)C(=O)N4CCN(C(=O)c5ccccc5)C[C@H]4C)c[nH]c23)C1=O` [P-H-1], the EC50 is < 1000 nM.
`COC(=O)[C@H]1OC(C)(C)O[C@@H]1C(=O)Nc1cccc2c(C(=O)C(=O)N3CCN(C(=O)c4ccccc4)C[C@H]3C)c[nH]c12` [P-A-13]: the 50% effective concentration (EC50) is < 1000 nM.
Turning to `COS(=O)(=O)c1ccc(NC(=O)Nc2cccc3c(C(=O)C(=O)N4CCC(=C(C#N)c5ccccc5)CC4)c[nH]c23)cc1` [P-C-18], the EC50 was < 1000 nM.
In the case of `C[C@@H]1CN(C(=O)c2ccccc2)CCN1C(=O)C(=O)c1c[nH]c2c(NC(=O)NCCCCCCNC(=O)Nc3cccc(B(O)O)c3)cccc12` [P-C-113], the concentration giving a half-maximal response (EC50) was < 1000 nM.
Next, `CCN(CC)S(=O)(=O)c1ccc(NC(=O)Nc2cccc3c(C(=O)C(=O)N4CCC(=C(C#N)c5ccccc5)CC4)c[nH]c23)cc1` [P-C-21]: < 1000 nM; `COC(=O)C(O)C(O)C(=O)Nc1cccc2c(C(=O)C(=O)N3CCN(C(=O)c4ccccc4)C[C@H]3C)c[nH]c12` (stereo partly shown) [P-A-17]: < 1000 nM; `CC/N=C(\NCCCN(C)C)Nc1cccc2c(C(=O)C(=O)N3CCN(C(=O)c4ccccc4)C[C@H]3C)c[nH]c12` [P-F-2]: < 1000 nM.
In the case of `C[C@@H]1CN(C(=O)c2ccccc2)CCN1C(=O)C(=O)c1c[nH]c2c(NC(=O)[C@H]3OC(C)(C)O[C@@H]3C(=O)O)cccc12` [P-A-14], the concentration for a half-maximal effect (EC50) was < 1000 nM.
Next, `CC1NC(=O)N(c2cccc3c(C(=O)C(=O)N4CCN(C(=O)c5ccccc5)C[C@H]4C)c[nH]c23)C1=O` (stereo partly shown) [P-G-2]: < 1000 nM; `N#CC(=C1CCN(C(=O)C(=O)c2c[nH]c3c(NC(=O)Nc4ccc(C(=O)O)cc4)cccc23)CC1)c1ccccc1` [P-I-13]: < 1000 nM; `C[C@@H]1CN(C(=O)c2ccccc2)CCN1C(=O)C(=O)c1c[nH]c2c(NC(=O)NCCCCNC(=O)Nc3cccc(B(O)O)c3)cccc12` [P-C-112]: < 1000 nM.
Turning to `N#CC(=C1CCN(C(=O)C(=O)c2c[nH]c3c(NC(=O)NC(CCC(=O)O)C(=O)O)cccc23)CC1)c1ccccc1` (stereo not shown) [P-I-8], the concentration giving a half-maximal response (EC50) was < 1000 nM.
For `COC(=O)c1cc(NC(=O)Nc2cccc3c(C(=O)C(=O)N4CCC(=C(C#N)c5ccccc5)CC4)c[nH]c23)cc(C(=O)OC)c1` [P-C-17], the EC50 is < 1000 nM.
For the compound `CC(=O)Nc1ccc(F)c2c(C(=O)C(=O)N3CCC(=C(C#N)c4ccccc4)CC3)c[nH]c12` [P-B-4], the EC50 was < 1000 nM.
On to `C[C@@H]1CN(C(=O)c2ccccc2)CCN1C(=O)C(=O)c1c[nH]c2c(NC(=O)Nc3ccc(C#N)cc3)cccc12` [P-C-22], for which the EC50 is < 1000 nM.
Consider `COC(=O)[C@@H]1OC(C)(C)O[C@H]1C(=O)Nc1cccc2c(C(=O)C(=O)N3CCN(C(=O)c4ccccc4)C[C@H]3C)c[nH]c12` [P-A-15], for which the EC50 is < 1000 nM.
Under `CC(=O)Nc1cccc2c(C(=O)C(=O)N3CCN(C(=O)c4ccccc4)C[C@H]3C)c[nH]c12` [P-A-5] stands < 1000 nM.
With `N#CC(=C1CCN(C(=O)C(=O)c2c[nH]c3c(NC(=O)Nc4cccc(C(=O)O)c4)cccc23)CC1)c1ccccc1` [P-I-12], the EC50 is < 1000 nM.
With `COC(=O)c1ccccc1NC(=O)Nc1cccc2c(C(=O)C(=O)N3CCN(C(=O)c4ccccc4)C[C@H]3C)c[nH]c12` [P-C-9], the concentration giving a half-maximal response (EC50) is < 1000 nM.
As to `C[C@@H]1CN(C(=O)c2ccccc2)CCN1C(=O)C(=O)c1c[nH]c2c(NC(=O)[C@@H]3OC(C)(C)O[C@H]3C(=O)O)cccc12` [P-A-16], the EC50 was < 1000 nM.
Under `C[C@@H]1CN(C(=O)c2ccccc2)CCN1C(=O)C(=O)c1c[nH]c2c(NC(=O)Nc3cccc(B(O)O)c3)cccc12` [P-C-202] stands < 1000 nM; under `C[C@@H]1CN(C(=O)c2ccccc2)CCN1C(=O)C(=O)c1c[nH]c2c(NC(=O)NCCOCCOCCNC(=O)c3ccc(B(O)O)cc3)cccc12` [P-C-402], < 1000 nM.
On to `COC(=O)CCCNC(=O)Nc1cccc2c(C(=O)C(=O)N3CCN(C(=O)c4ccccc4)C[C@H]3C)c[nH]c12` [P-C-4], for which the concentration giving a half-maximal response (EC50) is < 1000 nM.
On to `C[C@@H]1CN(C(=O)c2ccccc2)CCN1C(=O)C(=O)c1c[nH]c2c(NC(=O)Nc3ccc(S(=O)(=O)O)cc3)cccc12` [P-C-19], for which the 50% effective concentration (EC50) is < 1000 nM.
